Peptide text beside a SMILES is read from it. * marks the point of attachment. For = O=C*
Key:
[1] = target: T1, mouse Fpr3 (Fpr-rs1) (Mus musculus, UniProt O08790); assay: Concentration-response Ca2+ imaging of Fpr3-transfected HEK293T cells (Fig. 2f, h, j); assay type: cell-based; settings: for EC50: Ca2+ responses of Fpr3-transfected HEK293T, Fluo-4/AM, FLIPR, buffer C1 pH 7.2, Fig. 2f, h, j
T1 construct: expressed in transfected cells; host or cells: HEK293T (DSMZ # ACC-635), transient transfection with jetPEI
T1 sequence (O08790 1-351): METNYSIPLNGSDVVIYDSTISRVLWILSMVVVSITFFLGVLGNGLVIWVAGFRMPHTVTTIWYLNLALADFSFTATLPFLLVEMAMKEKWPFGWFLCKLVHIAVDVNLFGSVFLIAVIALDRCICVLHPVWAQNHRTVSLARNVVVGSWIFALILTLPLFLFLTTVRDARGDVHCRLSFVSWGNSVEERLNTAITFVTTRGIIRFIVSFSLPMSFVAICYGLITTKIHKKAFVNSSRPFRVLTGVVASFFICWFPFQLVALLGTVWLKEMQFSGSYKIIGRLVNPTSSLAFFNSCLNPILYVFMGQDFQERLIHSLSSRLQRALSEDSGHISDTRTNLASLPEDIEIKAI
Procedure: (§1) An Fpr3 gene subcloned from genomic DNA of C57BL/6J mice into pcDNA3.1 (Invitrogen) was used in heterologous experiments[21],[80]. HEK293T (DSMZ # ACC-635) cells were seeded at 20–30% confluence on poly-D-lysine-coated (10 µg/ml in PBS) black 96-well µCLEAR-Plates (Greiner Bio-One). Cells were transfected 24 h later using jetPEI™ (Polyplus-transfection SA) according to the manufacturer’s protocol for 96-well transfections. For Ca^2+ imaging experiments, 0.125 µg of DNA plasmid encoding Fpr3 were cotransfected with equal amounts of a plasmid encoding Gα16, a promiscuous G protein α-subunit. Ca^2+ signals to agonist stimulation were recorded 48 h post transfection using the Ca^2+ indicator dye Fluo-4/AM (Molecular Probes) and a fluorescence imaging plate reader (FLIPR) system (Molecular Devices).
We used custom-made peptides with a length of 6–21 amino acids to screen for agonists. Sequences of fMet peptides were designed according to motifs present at the N-termini of 15,125 specific bacterial proteins as annotated in UniProt. Peptides were chemically synthesised, purified, and verified by mass spectroscopy (MALDI-TOF) by commercial suppliers. […] Source, sequence and purity of each peptide are listed in Supplementary Data 1. Lyophilised peptides were routinely dissolved in the Ca^2+ imaging assay buffer C1 (130 mM NaCl, 10 mM HEPES, 5 mM KCl, 2 mM CaCl2, 5 mM glucose, pH 7.2) as 0.2–1 mM stock solutions and kept in small aliquots at −20 °C until use.

[2] = target: T1, mouse Fpr3 (Fpr-rs1); assay: Heterologous expression / high-throughput Ca2+ imaging agonist screen and sequence selectivity of Fpr3 (Fig. 1a, 2c-e, 2g, 2i); assay type: cell-based; settings: 10 µM; Fpr3-transfected HEK293T; Fig. 2g
Procedure: as §1, with “Devices). Cotransfection of a plasmid encoding Gα16 with an empty vector used to subclone Fpr3 gave no agonist-evoked Ca^2+ responses.” for “Devices).”
We used custom-made peptides with a length of 6–21 amino acids to screen for agonists. Sequences of fMet peptides were designed according to motifs present at the N-termini of 15,125 specific bacterial proteins as annotated in UniProt. Peptides were chemically synthesised, purified, and verified by mass spectroscopy (MALDI-TOF) by commercial suppliers. Purity of all peptides was >95%. Source, sequence and purity of each peptide are listed in Supplementary Data 1. Lyophilised peptides were routinely dissolved in the Ca^2+ imaging assay buffer C1 (130 mM NaCl, 10 mM HEPES, 5 mM KCl, 2 mM CaCl2, 5 mM glucose, pH 7.2) as 0.2–1 mM stock solutions and kept in small aliquots at −20 °C until use. […] The sequences of these peptides exist in proteins from the following bacterial strains[21]: Psychromonas ingrahamii that belongs to a marine ice water microbial community, Desulfotomaculum reducens that is found in deep freshwater lakes, and Pseudomonas grimontii, a plant pathogen. As mice are unlikely to encounter these strains in their natural habitat, these findings are probably not of biological relevance.

Row | Molecule | signals in concentration-response, in words ([1]; Fpr3-transfected HEK293T, Fig. 2h) | Fpr3 activation by MgrB 9-, 12- and 21-residue variants, in words [2] | EC50 [1] [nM]
1 | f-MKKFRWVVLGIVVVVCLLLWAQ [21-mer peptide] | No signals were obtained | failed to activate Fpr3 | 
2 | CC[C@H](C)[C@H](NC(=O)CNC(=O)[C@H](CC(C)C)NC(=O)[C@@H](NC(=O)[C@@H](NC(=O)[C@H](Cc1c[nH]c2ccccc12)NC(=O)[C@H](CCCNC(=N)N)NC(=O)[C@H](Cc1ccccc1)NC(=O)[C@H](CCCCN)NC(=O)[C@H](CCCCN)NC(=O)[C@H](CCSC)NC=O)C(C)C)C(C)C)C(=O)N[C@H](C(=O)O)C(C)C (For-MKKFRWVVLGIV-OH) |  |  | 210
3 | CC[C@H](C)[C@H](NC(=O)[C@H](CO)NC(=O)[C@H](Cc1c[nH]c2ccccc12)NC(=O)[C@H](CCCCN)NC(=O)[C@H](Cc1ccccc1)NC(=O)[C@H](CCCCN)NC(=O)[C@H](CCCCN)NC(=O)[C@H](CCSC)NC=O)C(=O)O (For-MKKFKWSI-OH) |  |  | 800

Reference: paper PMC6814738, “Bacterial MgrB peptide activates chemoreceptor Fpr3 in mouse accessory olfactory system and drives avoidance behaviour” (Nature Communications, 2019)
